Article PMC10180197, “Novel Pyrimidine Derivatives as Antioxidant and Anticancer Agents: Design, Synthesis and Molecular Modeling Studies” (Molecules, 2023)

How the values were obtained:
[1] = Experimental determination of lipophilicity as RM values (RP-TLC); format: physicochemical; details: methanol/water 70/30 v/v, 24 °C, SD < 10%
Description: Lipophilicity is an important physicochemical parameter of a drug candidate, linking solubility and membrane permeability with the ADMET (absorption, distribution, metabolism, elimination and toxicity) properties and the overall suitability of a molecule. Reversed-phase thin-layer chromatography was the method used to experimentally determine the lipophilic character of the synthesized compounds as RM values (Table 2). Lipophilicity was also theoretically calculated as clog P values using the Bio-Loom program of BioByte Corp (http://www.biobyte.com/, (accessed on 1 March 2023)). An attempt was made to correlate the experimental RM values with the theoretically calculated clog P values (Table 2). […] This disagreement could be attributed to several factors, e.g., different solvation, silanophilic interactions and hydrogen bonding.
Lipophilicity as RM values was determined through reversed-phase TLC (RP-TLC) on silica gel plates impregnated with 5% v/v liquid paraffin in light petroleum ether. Methanol/water mixture (70/30, v/v) was used as mobile phase. Closed chromatography tanks saturated with the mobile phase at 24 °C were used for the development of the plates while the spots were detected under UV light. For the determination of RM values, five individual measurements of Rf values were recorded, and the RM values were derived from the following Equation (1). (1) RM=log1/Rf−1

[2] = Reducing activity of the stable radical DPPH
Description: All the synthesized compounds were studied for their ability to interact with the stable free 2,2-diphenyl-1-picrylhydrazyl radical (DPPH) at a concentration of 100 μM after 20 min and 60 min (Table 4). This assay is based on the reduction of DPPH by transferring one electron from the antioxidant.
In vitro study was performed as reported previously by our group. In this experiment, 20 μL of the tested compound (from the stock solution), 980 μL EtOH and 1 mL ethanolic solution of DPPH (100 μM) were added in a testing tube in a final volume of 2 mL. The free radical scavenging ability was evaluated by recording the change of absorbance at 517 nm, produced by the reduction of DPPH, after 20 and 60 min at room temperature.

[3] = MTT cell viability assay, HaCaT; format: cell-based, human; details: human, HaCaT cells (epidermal keratinocyte cell line), 10 μΜ
Description: (§1) The MTT (3-(4,5-dimethylthiazol-2-yl)-2,5-diphenyltetrazolium bromide) assay is a colorimetric method that is used for the evaluation of cell viability. MTT is converted into colored formazan crystals, indicating the activity of mitochondria and therefore the viability of the cells. Unlike dead cells, the metabolic processes of living cells are functional, meaning that the dehydrogenase enzymes are able to reduce the yellow MTT salt solution to purple crystals, at 37 °C. The intensity of the sample’s color, due to the amount of formazan crystals, is proportional to the number of the living cells in it. Additionally, the colored product is dissolved in various solubilizing agents, such as dimethyl sulfoxide (DMSO). The colored products can be quantitatively measured at 450 nm with a plate reader spectrophotometer. In this study, the human epidermal keratinocyte cell line (HaCaT) was treated with different concentrations (100 μM, 50 μM, 10 μM and 1 μM) of the tested compounds and then the viability rates at each effect were calculated.
(§2) Τhe MTT assay was used to evaluate cell viability or cell toxicity, depending on the cell line being tested. The experimental procedure was performed in a 96-well plate, where the cells were seeded and incubated (37 °C, 5% CO2) for 24 h to grow and cover the surface of the wells. Τhe seeding concentrations for the HaCaT and A549 cells were 30 × 10^4 cells/mL and 20 × 10^4 cells/mL, respectively. After the first incubation, the solutions of the compounds (with different concentrations) were added to the adherent cells and incubated for another 24 h. The compounds were tested in triplicate against the control (only cells in medium), the blank (only medium) and the positive/negative control (cells in 100 μM silibinin solution) triplicates. Silibinin, a flavonoid with known anticancer activities, was used as a negative control for the cell viability assay and as positive control for the cytotoxicity testing assay. The light-sensitive MTT-standard solution was prepared by dissolving 1 mg/mL MTT in PBS and then filtrated (in a […] filter (Millipore, Carrigtwohill, Ireland)). On the third day, an appropriate amount of ΜΤΤ solution was added to each well and the plate was incubated for 4 h. During the incubation time, the formazan crystals were formed, which were then dissolved with 100 μL DMSO per well. Finally, the plate was stirred for 30 min, and the optical density (OD) was measured in a plate reader spectrophotometer at 450 nm.

[4] = test system: HaCaT cell line; test: MTT cell viability assay, HaCaT; format: cell-based, human; details: 100 μΜ, 24 h
Description: as §1, §2

[5] = test system: A549 cell line; test: MTT cytotoxicity assay, A549; format: cell-based, human; details: Homo sapiens, 24 h
Description: The compounds of this study were also tested for their cytotoxic effects against the adenocarcinomic human alveolar basal epithelial cell line (A549) at different concentrations (100 μM, 75 μΜ, 50 μM and 10 μM).
as §2

O=c1[nH]c(=S)[nH]c2nc(-c3ccccc3)cc(-c3ccc(Cl)cc3Cl)c12 [Compound 2g, 5-(2,4-dichlorophenyl)-7-phenyl-2-thioxo-2,3-dihydropyrido [2,3-d]pyrimidin-4(1H)-one]
RM [1]: −0.60 | RA % 100 μM 20 min ([2]; 20 min): 1% | RA % 100 μM 60 min ([2]; 60 min): no | viability at 24 h, 10 μM [3]: 56.7% | % Cell Viability 100 μΜ [4]: no | cytotoxicity at 50 µM ([5]; A549, 50 μΜ, read-out: % Cell Toxicity 50 μΜ): 79.1% | cytotoxicity at 100 µM ([5]; A549, 100 μΜ, read-out: % Cell Toxicity 100 μΜ): 79.4%
